Laboratory results taken from ChEMBL document CHEMBL1201862, “PubChem BioAssay data set” (2004).
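Cultured in 96-well plates, cells were exposed to test compound for 48 hours across five concentrations. The concentration for 50% growth inhibition is given as GI50.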 Calls of active or inactive are those of the source. Cut-off read from the data, not from the text of the source: active = GI50 up to about 1.1 µM and inactive = higher.

How the values were obtained:
Assay in all cases: DTP human tumour cell line panel, 48 h
RPMI-8226 = system: RPMI-8226
SF-539 = system: SF-539
UO-31 = system: UO-31
DU-145 = system: DU-145
M14 = system: M14
A549 = system: A549
HT-29 = system: HT-29
TK-10 = system: TK-10
MDA-N = system: MDA-N
K562 = system: K562
NCI/ADR-RES = system: NCI/ADR-RES
786-0 = system: 786-0
UACC-62 = system: UACC-62
SK-MEL-2 = system: SK-MEL-2
CAKI-1 = system: CAKI-1
SNB-75 = system: SNB-75
SK-MEL-28 = system: SK-MEL-28
HOP-62 = system: HOP-62
LOX IMVI = system: LOX IMVI
BT-549 = system: BT-549

Compound | GI50 (RPMI-8226) | GI50 (SF-539) | GI50 (UO-31) | GI50 (DU-145) | GI50 (M14) | GI50 (A549) | GI50 (HT-29) | GI50 (TK-10) | GI50 (MDA-N) | GI50 (K562) | GI50 (NCI/ADR-RES) | GI50 (786-0) | GI50 (UACC-62) | GI50 (SK-MEL-2) | GI50 (CAKI-1) | GI50 (SNB-75) | GI50 (SK-MEL-28) | GI50 (HOP-62) | GI50 (LOX IMVI) | GI50 (BT-549)
C=CCN1C(=O)C[C@H](Cc2ccccc2)NC(=O)C[C@H](Cc2ccccc2)N(CC=C)C(=O)C[C@H](Cc2ccccc2)NC(=O)C[C@@H]1Cc1ccccc1 | 2.76 µM (inactive) | 46.1 µM (inactive) | 7.03 µM (inactive) | > 100 µM (inactive) | 8.09 µM (inactive) | 4.83 µM (inactive) | 5.19 µM (inactive) | 8.79 µM (inactive) | 8.91 µM (inactive) | 3.45 µM (inactive) | 4.37 µM (inactive) | 47.8 µM (inactive) | 6.34 µM (inactive) | 6.73 µM (inactive) | 5.15 µM (inactive) | 3.92 µM (inactive) | 61.9 µM (inactive) | 51.8 µM (inactive) | 3.99 µM (inactive) | 95.5 µM (inactive)
N#C/C(N)=C(C#N)/N=C/Nc1ccccc1N | > 100 µM (inactive) | > 100 µM (inactive) | > 100 µM (inactive) | > 100 µM (inactive) | > 100 µM (inactive) | > 100 µM (inactive) | > 100 µM (inactive) | > 100 µM (inactive) | > 100 µM (inactive) | > 100 µM (inactive) | > 100 µM (inactive) | > 100 µM (inactive) | > 100 µM (inactive) | > 100 µM (inactive) | > 100 µM (inactive) | > 100 µM (inactive) | > 100 µM (inactive) | > 100 µM (inactive) | > 100 µM (inactive) | > 100 µM (inactive)
Cn1c(=O)c2c(nc3n(C)c(=O)c4ccccc4n23)n(C)c1=O | 20.7 µM (inactive) | 34.8 µM (inactive) | 39.1 µM (inactive) | 21.9 µM (inactive) | > 96.6 µM (inactive) | 9.98 µM (inactive) | 75.3 µM (inactive) | > 100 µM (inactive) | > 100 µM (inactive) | > 67 µM (inactive) | 59.4 µM (inactive) | 29.6 µM (inactive) | 28.9 µM (inactive) | > 100 µM (inactive) | 24.3 µM (inactive) | 40.1 µM (inactive) | > 100 µM (inactive) | 21 µM (inactive) | 38.7 µM (inactive) | > 80.4 µM (inactive)
O=S1(=O)OCCOS(=O)(=O)C1F | > 100 µM (inactive) | 43.6 µM (inactive) | > 100 µM (inactive) | > 100 µM (inactive) | > 100 µM (inactive) | > 100 µM (inactive) | > 100 µM (inactive) | > 100 µM (inactive) | > 100 µM (inactive) | > 100 µM (inactive) | > 100 µM (inactive) | > 100 µM (inactive) | > 100 µM (inactive) | > 100 µM (inactive) | > 100 µM (inactive) | > 100 µM (inactive) | > 100 µM (inactive) | > 100 µM (inactive) | > 100 µM (inactive) | 0.0293 µM (active)
CCC1(CC)N=C(C(F)(F)F)c2cc(C(=O)C(F)(F)F)c3ccccc3c2N1 | 2.58 µM (inactive) | 17.9 µM (inactive) | 3.3 µM (inactive) | 3.6 µM (inactive) | 4.89 µM (inactive) | 9.71 µM (inactive) | 3.7 µM (inactive) | 8.63 µM (inactive) | 3.15 µM (inactive) | 3.72 µM (inactive) | 4.14 µM (inactive) | 3.87 µM (inactive) | 3.36 µM (inactive) | 2.81 µM (inactive) | 3.99 µM (inactive) | 4.2 µM (inactive) | 8.26 µM (inactive) | 5.19 µM (inactive) | 3.64 µM (inactive) | 5.87 µM (inactive)
COc1ccc(C(=O)c2cc(OC)c(OC)c(OC)c2)cc1 | 0.169 µM (active) | 0.152 µM (active) | 1 µM (active) | 0.205 µM (active) | 0.0753 µM (active) | 0.106 µM (active) | 0.0372 µM (active) | 4.11 µM (inactive) | 0.016 µM (active) | 0.0392 µM (active) | 0.054 µM (active) | 0.169 µM (active) | 0.0501 µM (active) | 0.342 µM (active) | 0.0738 µM (active) | 0.0726 µM (active) | 0.733 µM (active) | 0.7 µM (active) | 0.147 µM (active) | 0.923 µM (active)
CC/C=C\C=C/C(=O)N/C=C/CCC | 40.2 µM (inactive) | > 100 µM (inactive) | > 100 µM (inactive) | > 100 µM (inactive) | > 100 µM (inactive) | > 100 µM (inactive) | 78.3 µM (inactive) | > 100 µM (inactive) | > 100 µM (inactive) | > 100 µM (inactive) | > 100 µM (inactive) | > 100 µM (inactive) | 47.2 µM (inactive) | > 100 µM (inactive) | > 100 µM (inactive) | > 100 µM (inactive) | > 100 µM (inactive) | > 100 µM (inactive) | > 100 µM (inactive) | > 100 µM (inactive)
